Data from patent publication US11058700B2, “Macrocyclic lactones and uses thereof as modulators of purinergic receptors” (City of Hope, priority 2015, dated 2021).

Legend:
[1] = system: breast (MCF7), prostate (DU-145), head and neck (A253), and ovarian (SKOV3) cancer cells; assay: Killing of resistant human cancer cell lines by Ivermectin and ATP; type: cell-based; conditions: Ivermectin 16 μM, exogenous ATP 3 mM
Experimental: FIGS. 5A-5E. CaMKII-independent P2X7-mediated killing. FIG. 5A: qPCR showing the extent of gene knockdown in 4T1.2 cells transfected with shRNA targeting the P2X7 receptor versus non-targeting (NT) control (left panel). […] One million wt, shRNA(NT) and shRNA(P2X7) 4T1.2 cells were plated and incubated for 48 h before evaluation of cell numbers and viability. FIG. 5B: P2X7 knockdown cells are more resistant to ATP and the ATP/IVM combo. 4T1.2 cells were treated for 24 h with 1-3 mM ATP, 6-10 μM Ivermectin, or combinations of ATP and Ivermectin. P2X7 knockdown suppresses the synergy between Ivermectin and high dose ATP, as shown by calculation of combination index (CI) values, see Table 2. FIG. 5C: P2X7 knockdown cells are resistant to ATP/Ivermectin induced membrane permeabilization (Asterisk (*) indicates p<0.05). […] FIG. 5E: Comparison of the protective effects of P2X7, CaMKII, and NADPH oxidases inhibition in short-term (4 h, 32 μM IVM) and long-term (24 h, 12 μM IVM) exposure of 4T1.2 cells to Ivermectin. Asterisk (*) indicates p<0.05 relative to Ivermectin alone controls.
(§1) Cell viability. […] Following treatment the plates were washed once with PBS and cell viability was measured using the acid phosphatase assay. […] Absorption at 405 nm was measured within 10 min using a multi-well plate reader. Mode of cell death and viability of cells in suspension was evaluated using flow cytometry. […]

[2] = system: MDA-MB-231 breast cancer cells; assay: Viability of breast cancer cells compared to normal fibroblasts; type: cell-based; conditions: MDA-MB-231 vs normal non-transformed human foreskin fibroblasts (HFFs)
Experimental: FIGS. 1A-1H. Ivermectin kills breast cancer cells through a mixed apoptotic and necrotic mechanism. FIG. 1A: Mouse (4T1.2) and human (MDA-MB-231) TNBC cells manifest similar sensitivity to Ivermectin. Viability of cells treated with various doses of Ivermectin for 24 h. FIG. 1B: Extended exposure time reduces IC50 values to as low as 2 μM. 4T1.2 cells were seeded at 100 cells/well and individual colonies were counted after a week. Cancer cells were exposed to Ivermectin during the initial 24 h or during the entire duration of the assay. FIG. 1C: MDA-MB-231 breast cancer cells manifest higher sensitivity to Ivermectin compared to normal non-transformed human foreskin fibroblasts (HFFs). FIG. 1D: Flow cytometry analysis showing that cell death proceeds through two distinct pathways: a directly necrotic 7AAD-single positive or Annexin V/PS-single positive apoptotic pathway. FIG. 1E: Kinetics of necrotic versus apoptotic killing of 4T1.2 breast cancer cells. FIG. 1F: Ivermectin-induced cell death can be reversed by inhibition of various controlled cell death pathways. […]
as §1

4T1.2 cells [3] = assay: Cytosolic Ca2+ flux; type: cell-based, mouse
Experimental: Cytosolic Ca^2+ flux. Cancer cells in suspension were washed with PBS and loaded with 1 μM Rhod-3 AM (Life Technologies, R10145) for 30 min at room temperature in the dark. Cells were washed with PBS couple of times and treated with various doses of Ivermectin in R10 medium. Cells were incubated for 15 min to 4 h in 5 ml FACS tubes at 37° C. and 5% CO2, followed by immediate flow cytometry analysis of fluorescence in the PE channel. Chelating of extracellular and intracellular Ca^2+ was performed by supplementing the Ivermectin treatment medium with 1 mM EDTA (USB Corp, 15694) or by adding 20 μM BAPTA-AM (Tocris, 2787) to the Rhod-3 AM loading solution, respectively.

4T1.2 cells [4] = assay: Cell viability (acid phosphatase assay) of cancer cells treated with Ivermectin; type: cell-based, mouse; conditions: mouse and human breast cancer cells
Experimental: Cell viability. Cancer cells were plated on 96 well flat-bottom plates and allowed to attach overnight. Cells were then pre-incubated with drugs for 1 h and treated with Ivermectin for 4 h. In the case of 24 h and 48 h incubations the cells, Ivermectin and drugs were plated together. All treatments and controls were done in triplicate wells and results were validated in at least two independent experiments. Following treatment the plates were washed once with PBS and cell viability was measured using the acid phosphatase assay. Briefly, cells were incubated for 1h at 37° C. in 100 μL assay buffer (0.16 M sodium acetate, 0.1% Triton-X-100, supplemented with 4-Nitrophenyl phosphate disodium salt hexahydrate, Sigma Aldrich, at 0.00263 g/ml). Reaction was stopped using 10 μL of 1N sodium hydroxide. Absorption at 405 nm was measured within 10 min using a multi-well plate reader. Mode of cell death and viability of cells in suspension was evaluated using flow cytometry. Briefly, cancer cells were pre-incubated with drugs for 30 min to 1 h, as indicated, treated with Ivermectin for 4 h in 5 ml FACS tubes , washed twice in PBS and stained with PE-conjugated Annexin V and 7AAD (1 μl per 100 μl/200,000 cancer cells) for 15 min.

Question: For `CC[C@H](C)[C@H]1O[C@]2(CC[C@@H]1C)C[C@@H]1C[C@@H](C/C=C(\C)[C@@H](O[C@H]3C[C@H](OC)[C@@H](O[C@H]4C[C@H](OC)[C@@H](O)[C@H](C)O4)[C@H](C)O3)[C@@H](C)/C=C/C=C3\CO[C@@H]4[C@H](O)C(C)=C[C@@H](C(=O)O1)[C@]34O)O2` [Ivermectin], which “killing by combination of Ivermectin and ATP” value [1] is on record?
Answer: The value was “synergistically kill”.

Question: What about the “sensitivity of breast cancer cells versus normal cells” value [2] of the same compound?
Answer: The value was “higher sensitivity than normal cells”.

Question: What about the “cytosolic Ca2+” value (4T1.2 cells [3]) of the same compound?
Answer: Its value is “sustained increases in cytosolic Ca^2+”.

Question: And the “Ivermectin doses giving rapid killing” value (4T1.2 cells [4])?
Answer: Its value is ≥ 8 µM.
